Results on one compound are retold here after patent US20220378773A1, “METHODS FOR TREATING LEUKEMIA AND USE OF A LEUKEMIC STEM CELL SIGNATURE TO PREDICT CLINICAL SENSITIVITY TO THERAPIES” (CELGENE CORPORATION, priority 2019, published 2022).

In series [1] the test system is AML graft (human CD45+CD33+ cells). Put plainly: AML xenograft efficacy, 2.5 mg/kg IP twice daily. As to conditions: AML Patient 90668; 500,000 cells per mouse; dosing from Day 21. The series is classed as in vivo, NOD/SCID mice.
The test system of series [2] is normal cord blood-derived human graft. Details: species or system NOD/SCID mice. As to conditions: mouse, in vivo. Here is the method: Normal cord blood experiment was carried out similar to what has been described as above but using CD34+ cells isolated from normal cord blood. Two or three normal donors were pulled together to generate enough cells for each of the CB engraftments, termed CB1 and CB2.
Compound D toxicity on normal hematopoietic cells was investigated using CB samples. Mice were transplanted with two different CB samples (CB1 and CB2) and dosed with 2.5 mg/kg Compound D or vehicle control BID intraperitoneally. Flow cytometric analyses from a representative mouse from the vehicle- and Compound D-treated groups are shown in FIG. 8A and FIG. 8B, respectively.

For series [3], the system named is primary acute myeloid leukemia blasts. Nature of the series: In vitro apoptosis (Annexin V) and cell count of primary AML blasts. The series is classed as cell-based, human. The method, then:
Annexin V-PE apoptosis detection kit (BD Pharmingen, BD Bioscience, USA) was used to assess apoptosis.
Cell Culture: Materials used for in vitro assays of AML cells included X-VIVO 10 medium supplemented with 15% BIT, and growth factors including 100 ng/mL of stem cell factor, 20 ng/mL of IL-6, 20 ng/mL of G-CSF, 20 ng/mL of IL-3, 100 ng/mL of Flt 3 ligand (each provided by Amgen, USA), 20 ng/mL of GM-CSF (R&D Systems, USA), and 50 ng/mL of thrombopoietin (Kirin Brewery, Japan).
Assay Procedure: After 4 and 24 hours of in vitro culture with DMSO or Compound D, cells were harvested for GSPT1 expression and apoptosis. Levels of GSPT1 were analyzed by flow cytometry using median fluorescence intensity (MFI) and normalized against DMSO controls. Apoptosis was also analyzed by flow cytometry and measured as percentage of cells which were positive for cleaved caspase 3/7.
Viably frozen primary leukemia cells were thawed and plated in suspension culture in the Iscove's Modified Dulbecco's Medium plus 15% BIT Serum Substitute (Stem Cell Technology, Canada), supplemented with multiple human growth factors. Compound D was added to the culture at indicated concentrations.
For GSPT1 expression, intracellular flow cytometry (FACS) was performed at 24 hours in culture by staining cells with GSPT1 conjugated with Alexa Fluor 647. For apoptosis, cells were harvested at 24 hours in culture and stained with Annexin V-PE and 7-aminoactinomycin D (7AAD) (BD Biosciences, USA).

`O=C1CCC(N2Cc3cc(CNC(=O)C(F)(F)c4ccc(Cl)cc4)ccc3C2=O)C(=O)N1` (stereo not drawn) [Compound D, 2-(4-chlorophenyl)-N-((2-(2,6-dioxopiperidin-3-yl)-1-oxoisoindolin-5-yl)methyl)-2,2-difluoroacetamide]: the survival entry in series [1] is “did not improve survival”. For the same compound, in series [2] (NOD/SCID, 4 weeks), the “human graft remaining after treatment” value is listed as 5-10% and the “percentage of CD34+ cells” value was “did not decrease the percentage of CD34+ cells”. In series [2], the “CD34+CD19+ primitive lymphoid cells” value is given as “significantly decreased”, the “CD34+CD33+ primitive myeloid cells” value is “not targeted”, the “absolute number of CD34+ cells” value was “significantly reduced” and the “number of CD19+ lymphocytes” value was “significantly decreased”. For the same compound, in series [2], the “percentages of CD34+CD38− primary cells” value is given as “not specifically targeted” and the “proportion of CD33+ myeloid cells” value is “increased”. The apoptosis result in series [3] (4 hours) was “not observed”. Besides, in series [3] (24 hours), the “apoptosis, high vs low LSC17 score samples” value is given as “induced apoptosis at higher levels in samples with high LSC17 scores”. In addition, in series [3] (24 hours, concentration-dependent), the “induction of apoptosis, number of samples” value is given as “observed in 3 of the 10 samples tested”. In addition, the live cells result in series [3] (Section 6.3 samples) was “reduction of live cells”. Further, in series [3] (Section 6.3 samples, 24 hours), the apoptosis result is reported as “Increased apoptosis”. For the same compound, the cell numbers entry in series [3] (with increased concentration, 24 hours) is on record as “reduced cell numbers for most samples”.
